According to patent publication US6881732B2, “Neuroprotection and cardioprotection afforded by chelators with high affinity and specificity for cations of first transition series elements” (Chelator LLC, priority 2002, dated 2005):

Columns and labels:
[1] = tested on: Fenton Reactions (iron catalyzed Haber-Weiss pathways); experiment: iron-catalyzed free radical generation, superoxide-driven Fenton reaction; assay type: biochemical; settings: chelator as Fe(III) complex
Description: Employing published methods, as described in “Quantitative Effects of Iron Chelators on Hydroxyl Radical Production by the Superoxide-Driven Fenton Reaction,” J. B. Smith, J. C. Cusumano, C. F. Babbs, Free Rad. Res. Comms. 1990, Vol. 8, No. 2, 101-106, the ability of Fe(III) complexed to N,N′,N″-tri(dihydroxy-phosphoryl methyl)-1,4,7-triazacyclononane to support Fenton reactions was evaluated.

[2] = tested on: ex vivo working rat heart; experiment: ex vivo working rat heart model of global ischemia
[3] = tested on: mammalian cell replication; experiment: inhibition of mammalian cell replication in vitro; assay type: cell-based
Description: (§1) This in vivo LD50 toxicity dose results in an instantaneous in vivo concentration which is orders of magnitude greater than the dose of this agent which inhibits mammalian cell replication in vitro (0.009 mM/L).

mice = experiment: acute in vivo toxicity, single intravenous dose in mice; settings: 3.0 mM/kg single intravenous dose; sodium salt
Description: (§2) This example illustrates the low in vivo toxicity of a representative example of the chelators of this invention upon administration to mice.
as §1

[4] = as above; settings: mouse, in vivo, iv
Description: as §2, §1

unanesthetized rabbit = experiment: ventricular overdrive pacing (VOP) induced ischemia in unanesthetized rabbit; assay type: in vivo; settings: for cardioprotection with regard to cardiac performance parameters: 10 min prior to VOP
Description: In the in vivo unanesthetized rabbit VOP-induced myocardial ischemia model, intravenous doses of 0.032 mmole/kg and 0.096 mmole/kg of the test compound were cardioprotective with regard to cardiac performance parameters when administered 10 min prior to VOP. […] The test compound had no affect on any cardiac performance parameters in these experiments prior to VOP-induced ischemia.

rats = experiment: rat stroke model, transient occlusion of the middle cerebral artery (TMCAO); assay type: in vivo; settings: for Infarct Volumes: 48 hours after surgery; for Infarct Volumes / Motor Score: 1 Hour / Motor Score: 24 Hours / Motor Score: 48 Hours: mean ± SD
[5] = tested on: HFF (human foreskin fibroblasts); experiment: toxicity toward nonproliferating mammalian cells in vitro; assay type: cell-based; settings: 0.3 mM; mature, nonreplicating HFF cultures in maintenance media; five-day period of observation
Description: This example illustrates the relatively low toxicity of a representative example of the chelators of this invention toward nonproliferating mammalian cells in vitro.

Sprague Dawley rats = experiment: subacute toxicity, repeated intravenous doses in rats; assay type: in vivo, rat
Description: Ten male Sprague Dawley rats 29 days old and weighing between 73.4 and 87.8 grams at the beginning of the experiment were randomized, employing the block stratificaton method, into two groups consisting of five rats each. On each of days 1, 2, 3, 6, 7, 8, 9, 10, 13 and 14 of the experiment one set of rats received an intravenous dose of N,N′,N″-tri(dihydroxyphosphoryl methyl)-1,4,7-triazacyclononane (Example 1C in U.S. Pat. No. 5,236,695) equal to 0.05 millimoles per kg of initial body weight (experimental group) while the other group received an equivalent volume of normal saline solution. The weights of the animals were recorded three times per week and the animals were sacrificed on the 28th day, major organs removed and weighed and tissues removed for microscopic examination.

anesthetized rabbit = experiment: rabbit myocardial infarction model (30 min LCAO, reperfusion ~24 hours); assay type: in vivo; settings: for cardioprotection (volume of infarcted myocardium vs. controls): administered beginning after 15 minutes of LCAO
Description: Cardioprotection by the test compound in ischemia-reperfusion injury was evaluated in a rabbit myocardial infarction model employing 30 minutes of reversible ligature occlusion of the left anterior descending coronary artery (LCAO) followed by reperfusion for ˜24 hours prior to sacrifice.

[6] = Set I: three IV doses of 0.032 mmoles/kg at 10 min prior to, 60 min after MCA occlusion and at reperfusion
[7] = Set II: three IV doses of 0.032 mmoles/kg at 60, 120 (reperfusion) and 180 min after MCA occlusion
[8] = Set III: single 0.032 mmoles/kg IV dose after 60 minutes of MCA occlusion
[9] = Set IV: single 0.032 mmoles/kg IV dose after 90 minutes of MCA occlusion

Compound: O=C(O)CN(CCN(CC(=O)O)CC(=O)O)CC(=O)O [EDTA, ethylene diamine tetra acetic acid, reference compound]
- ability of Fe(III) complexed to the chelator to support Fenton reactions (hydroxyl radical formation) [1]: supported the Fenton reaction yielding hydroxyl radicals

Compound: O=P(O)(O)CN1CCN(CP(=O)(O)O)CCN(CP(=O)(O)O)CC1 [N,N′,N″-tris(dihydroxyphosphorylmethyl)-1,4,7-triazacyclononane]
- effects on cardiac parameters following ischemia ([2]; 2.7 mM in the perfusing medium): no adverse effects
- effects on cardiac performance parameters prior to ischemia ([2]; 2.7 mM in the perfusing medium): no effects
- cardioprotection with regard to cardiac performance parameters following global ischemia ([2]; added to the perfusing medium, broad concentration range): significantly cardioprotective
- concentration of peak efficacy (cardioprotection) ([2]; in the perfusing medium): 0.01 mM
- dose which inhibits mammalian cell replication in vitro [3]: 0.009 mM/L
- mice surviving for over 14 days (mice): Over 50%
- LD50 at 14 days [4]: > 3000 µmol/kg
- cardioprotection with regard to cardiac performance parameters (unanesthetized rabbit; 0.032 mmole/kg intravenous): cardioprotective
- cardioprotection with regard to cardiac performance parameters (unanesthetized rabbit; 0.096 mmole/kg intravenous): cardioprotective
- cardioprotection (unanesthetized rabbit; single IV dose of 0.032 mmole/kg administered up to 60-120 min prior to VOP-induced ischemia): significant cardioprotection
- effect on cardiac performance parameters prior to VOP-induced ischemia (unanesthetized rabbit; unanesthetized rabbit): no affect
- Infarct Volumes (rats; [6]): 3.5 ± 3.7 percentage of whole hemispheric tissue
- Motor Score: 1 Hour (rats; [6]): 7.3 ± 1.3 points
- Motor Score: 24 Hours (rats; [6]): 5.9 ± 1.1 points
- Motor Score: 48 Hours (rats; [6]): 5.4 ± 1.9 points
- Infarct Volumes (rats; [7]): 6.2 ± 7.5 percentage of whole hemispheric tissue
- Motor Score: 1 Hour (rats; [7]): 6.9 ± 1.1 points
- Motor Score: 24 Hours (rats; [7]): 3.6 ± 2.9 points
- Motor Score: 48 Hours (rats; [7]): 3.0 ± 3.0 points
- Infarct Volumes (rats; [8]): 2.6 ± 2.1 percentage of whole hemispheric tissue
- Motor Score: 1 Hour (rats; [8]): 6.8 ± 1.0 points
- Motor Score: 24 Hours (rats; [8]): 4.3 ± 1.0 points
- Motor Score: 48 Hours (rats; [8]): 2.8 ± 2.1 points
- Infarct Volumes (rats; [9]): 4.63 ± 9.08 percentage of whole hemispheric tissue
- Motor Score: 1 Hour (rats; Set IV: single 0.032 mmoles/kg IV dose after 90 minutes of MCA occlusion, cell marked '2 hours:'): 7.43 ± 1.27 points
- Motor Score: 24 Hours (rats; [9]): 4.9 ± 2.04 points
- Motor Score: 48 Hours (rats; [9]): 3.7 ± 1.98 points
- blood pressure, heart rate and temperature values compared with vehicle-treated animals (rats; all treated groups): similar
- reduction in infarct volumes compared to the corresponding control group (rats; all treated rats): robust
- ability of Fe(III) complexed to the chelator to support Fenton reactions (hydroxyl radical formation) [1]: failed to show evidence of hydroxyl ion formation above background
- effect on the resting cells [5]: no effect on the resting cells was observed
- difference in weight or rate of weight gain vs control group (Sprague Dawley rats; 0.05 millimoles per kg IV on 10 days within 14 days, injection period and two-week post-injection period): no statistically significant difference
- differences in tissues upon microscopic examination vs control group (Sprague Dawley rats; 0.05 millimoles per kg IV on 10 days, necropsy on 28th day): no differences
- differences in weights of major organs vs control group (Sprague Dawley rats; 0.05 millimoles per kg IV on 10 days, sacrifice on 28th day): no differences observed
- cardioprotection (volume of infarcted myocardium vs. controls) (anesthetized rabbit): significant reduction
- volume of infarcted myocardium expressed as % of myocardial volume at risk (anesthetized rabbit; administration beginning after 15 minutes of LCAO): 30.6%
- infarcted myocardium as a % of volume at risk (anesthetized rabbit; administration initiated 10 minutes prior to the onset of ischemia): 28.1%
- effect on pre-ischemia cardiac performance parameters (anesthetized rabbit; rabbit): without affecting

Compound: O=C(NCCO[N+](=O)[O-])c1cccnc1 [nicorandil, reference compound]
- cardioprotection (volume of infarcted myocardium vs. controls) (anesthetized rabbit): failed to provide cardioprotection
